Measured values from patent US20080175974A1, “Isomaltulose as an Aftertaste-Shortening Agent” (Suedzucker Aktiengesellschaft Mannheim/Ochsenfurt, priority 2005, published 2008).

What was measured:
test subjects [1] = assay: Sensory evaluation of milk chocolate containing sucralose (aftertaste); type: in vivo, humans; details: milk chocolate with 42.41 g/100 g isomaltulose and 0.02 g/100 g sucralose; 12 to 17 test subjects; assessed after chocolate completely dissolved in the mouth; compared with trehalose, lactite, maltite, erythrite chocolates; FIG. 1
Method: Milk chocolates containing sucralose were produced, which contained either a sugar substitute or isomaltulose (Palatinose™) as the sweetener that is absorbed by the body. These milk chocolates were evaluated sensorially with respect to their aftertaste that is typical of sucralose.
“You have before you samples of chocolate containing sucralose. Sucralose has a pronounced, lingering aftertaste. The following samples are to be evaluated with regard to whether, and if so to what extent, this aftertaste is perceptible.
Please take a serving of chocolate (1 “square”) and suck on it. […] Then please assess the aftertaste of the sample.
To neutralize the taste, please have some of the prepared tea and the white bread.”
Samples: • Milk chocolate containing sucralose with isomaltulose • Milk chocolate containing sucralose with trehalose • Milk chocolate containing sucralose with lactite • Milk chocolate containing sucralose with maltite • Milk chocolate containing sucralose with erythrite
The sensory evaluation of the chocolates containing sucralose was performed by 12 to 17 test subjects.
The aftertaste of the sucralose was assessed after the chocolate had been completely dissolved in the mouth.

test subjects [2] = assay: Sensory evaluation of aqueous solutions containing sucralose (aftertaste); type: in vivo, humans; details: aqueous solution 7.916% isomaltulose, 0.004% sucralose; 5 test subjects; assessed immediately following consumption; compared with maltodextrin or saccharose solutions; scale 0=no perceptible aftertaste, 2=clearly perceptible
Method: Aqueous solutions containing sucralose were prepared, which contained isomaltulose, maltodextrin or saccharose as a sweetener. All the solutions also contained sucralose. […] Samples: • Maltodextrin solution: 7.916% maltodextrin; 0.004% sucralose; 92.080% water • Palatinose™ solution: 7.916% isomaltulose; 0.004% sucralose; 92.080% water • Saccharose solution: 5.603% saccharose; 0.004% sucralose; 94.393% water The sensory evaluation of the solutions containing sucralose was performed by 5 test subjects. The aftertaste of the sucralose was assessed immediately following consumption of the solution containing sucralose.

[3] = water; cited from earlier work
[4] = cited from earlier work

SMILES	lingering aftertaste of sucralose (test subjects [1])	lingering aftertaste of sucralose (test subjects [2])	aqueous solubility [3]	sweetening power ([4]; 10% aqueous isomaltulose solutions)	sweetness relative to sugar ([4]; sucralose in aqueous solution)
O=C(CO)[C@@H](O)[C@H](O)[C@H](O)CO[C@H]1O[C@H](CO)[C@@H](O)[C@H](O)[C@H]1O [isomaltulose, 6-O-α-D-glucopyranosyl-fructose]	decreases the lingering aftertaste	decreases the lingering aftertaste	0.49 g anhydrous isomaltulose per gram of water	approximately 0.4 of the sweetening power of sugar	–
OC[C@H]1O[C@H](O[C@]2(CCl)O[C@H](CCl)[C@@H](O)[C@@H]2O)[C@H](O)[C@@H](O)[C@H]1Cl [sucralose, 1,6-dichloro-1,6-didesoxy-β-D-fructofuranosyl-4-chloro-4-desoxy-α-D-galactopyranoside]	–	–	–	–	approximately 600 times sweeter than sugar
